Measured values published in patent US9493444B2 (Merck Patent GmbH, priority 2012, dated 2016).

Each molecule was assayed on Wnt pathway (TCF-dependent transcription in HEK293 luciferase reporter cell line with ER-DSH construct) (assay: Cellular assay for Wnt pathway activity (luciferase reporter)). Details: Homo sapiens; Wnt pathway inhibition, HEK293 luciferase reporter cells (ER-DSH, TCF promoter), 24 hours incubation, estrogen-induced.
Type: cell-based
Outline: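 Luminescent luciferase read-out after 24 h compound exposure at 1 nM to 30 μM, with TCF-driven transcription switched on by estrogen addition. IC50 values come from curve fits of data normalized against the vehicle-only control.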

`CC(=O)N(C)CCNc1cncc(Oc2ccc(-c3ccc(CO)nc3)cc2)n1` [Compound 254, N-(2-{6-[4-(6-Hydroxy-methyl-pyridin-3-yl)-phenoxy]-pyrazin-2-ylamino}-ethyl)-N-methyl-acetamide] and `CC(=O)N(C)CCNc1cncc(Oc2ccc(-c3ccc(C#N)nc3)cc2)n1` [Compound 276, N-(2-{6-[4-(6-Cyano-pyridin-3-yl)-phenoxy]-pyrazin-2-ylamino}-ethyl)-N-methyl-acetamide] fall in the same range of IC50: 200 to 1000 nM for the first, 200 to 1000 nM for the second.

`CC(=O)N(C)CCNc1cncc(Oc2ccc(-c3ccncc3)cc2)n1` [Compound 255, N-Methyl-N-{2-[6-(4-pyridin-4-yl-phenoxy)-pyrazin-2-ylamino]-ethyl}-acetamide] and `CC(=O)N(C)CCNc1cncc(Oc2ccc(-c3ccc(F)cn3)cc2)n1` [Compound 262, N-(2-{6-[4-(5-Fluoro-pyridin-2-yl)-phenoxy]-pyrazin-2-ylamino}-ethyl)-N-methyl-acetamide] fall in the same range of IC50: 1000 to 10000 nM for the first, 1000 to 10000 nM for the second.

First: CC(=O)N(C)CCN(C)c1cncc(Oc2ccc(-c3ccn(C)n3)c(F)c2F)n1 [Compound 256, N-[2-({6-[2,3-Difluoro-4-(1-methyl-1H-pyrazol-3-yl)-phenoxy]-pyrazin-2-yl}-methyl-amino)-ethyl]-N-methyl-acetamide]
Second: CC(=O)N(C)CCN(C)c1cncc(Oc2ccc(-c3cccnc3)c(F)c2F)n1 [Compound 279, N-(2-{[6-(2,3-Difluoro-4-pyridin-3-yl-phenoxy)-pyrazin-2-yl]-methyl-amino}-ethyl)-N-methyl-acetamide]
The IC50 of the first is higher: 200 to 1000 nM for the first, under 200 nM for the second.

Compared with `CC(=O)N(C)CCNc1cncc(Oc2ccc(-c3ccncc3C#N)cc2F)n1` [Compound 257, N-(2-{6-[4-(3-Cyano-pyridin-4-yl)-2-fluoro-phenoxy]-pyrazin-2-ylamino}-ethyl)-N-methyl-acetamide], `CC(=O)N(C)CCCc1cncc(Oc2ccc(-c3ccncc3C#N)cc2F)n1` [Compound 266, N-(3-{6-[4-(3-Cyano-pyridin-4-yl)-2-fluoro-phenoxy]-pyrazin-2-yl}-propyl)-N-methyl-acetamide] is lower in IC50: 200 to 1000 nM for the first, under 200 nM for the second.

First: CC(=O)Nc1ccc(-c2ccc(Oc3cncc(NCCN(C)C(C)=O)n3)c(F)c2)cn1 [Compound 258, N-[5-(4-{6-[2-(Acetyl-methyl-amino)-ethylamino]-pyrazin-2-yloxy}-3-fluoro-phenyl)-pyridin-2-yl]-acetamide]
Second: CC(=O)Nc1cccc(-c2ccc(Oc3cncc(NCCN(C)C(C)=O)n3)c(F)c2)n1 [Compound 259, N-(2-{6-[4-(6-Acetylamino-pyridin-2-yl)-2-fluoro-phenoxy]-pyrazin-2-ylamino}-ethyl)-N-methyl-acetamide]
The IC50 of the first is lower: 200 to 1000 nM for the first, 1000 to 10000 nM for the second. The first is the more potent here.

First: CC(=O)Nc1ccc(-c2ccc(Oc3cncc(NCCN(C)C(C)=O)n3)cc2)cn1 [Compound 260, N-(2-{6-[4-(6-Acetylamino-pyridin-3-yl)-phenoxy]-pyrazin-2-ylamino}-ethyl)-N-methyl-acetamide]
Second: CC(=O)N(C)CCNc1cncc(Oc2ccc(-c3cncc(S(C)(=O)=O)c3)cc2)n1 [Compound 275, N-(2-{6-[4-(5-Methane-sulfonyl-pyridin-3-yl)-phenoxy]-pyrazin-2-ylamino}-ethyl)-N-methyl-acetamide]
The IC50 of the first is lower: 200 to 1000 nM for the first, 1000 to 10000 nM for the second. The first is the more potent here.

`CC(=O)N(C)CCN(C)c1cncc(Oc2ccc(-c3ccnnc3)cc2)n1` [Compound 261, N-Methyl-N-(2-{methyl-[6-(4-pyridazin-4-yl-phenoxy)-pyrazin-2-yl]-amino}-ethyl)-acetamide] and `CNCc1ccc(-c2ccc(Oc3cncc(N(C)CCN(C)C(C)=O)n3)cc2)cn1` [Compound 265, N-Methyl-N-[2-(methyl-{6-[4-(6-methylaminomethyl-pyridin-3-yl)-phenoxy]-pyrazin-2-yl}-amino)-ethyl]-acetamide] cannot be ordered by IC50: under 200 nM for the first, under 200 nM for the second.

First: Nc1cnc(-c2ccc(Oc3cncc(CCCN4CCCCC4=O)n3)cc2)cn1 [Compound 263, 1-(3-{6-[4-(5-Amino-pyrazin-2-yl)-phenoxy]-pyrazin-2-yl}-propyl)-piperidin-2-one]
Second: CC(=O)N(C)CCCc1cncc(Oc2ccc(-c3cnc(N)cn3)cc2F)n1 [Compound 269, N-(3-{6-[4-(5-Amino-pyrazin-2-yl)-2-fluoro-phenoxy]-pyrazin-2-yl}-propyl)-N-methyl-acetamide]
The IC50 of the first is lower: under 200 nM for the first, 200 to 1000 nM for the second.

First: CC(=O)N(C)CCCc1cncc(Oc2ccc(F)cc2)n1 [Compound 264, N-{3-[6-(4-Fluoro-phenoxy)-pyrazin-2-yl]-propyl}-N-methyl-acetamide]
Second: CC(=O)N(C)CCCc1cncc(Oc2ccc(-c3ccncc3)cc2F)n1 [Compound 270, N-{3-[6-(2-Fluoro-4-pyridin-4-yl-phenoxy)-pyrazin-2-yl]-propyl}-N-methyl-acetamide]
The IC50 of the first is higher: 1000 to 10000 nM for the first, 200 to 1000 nM for the second.

First: CC(=O)N(C)CCCc1cncc(Oc2ccc(-c3ccc(N4CCOCC4)nc3)cc2F)n1 [Compound 267, N-(3-{6-[2-Fluoro-4-(6-morpholin-4-yl-pyridin-3-yl)-phenoxy]-pyrazin-2-yl}-propyl)-N-methyl-acetamide]
Second: CC(=O)N(C)CCCc1cncc(Oc2ccc(-c3ccc(C)cn3)cc2F)n1 [Compound 268, N-(3-{6-[2-Fluoro-4-(5-methyl-pyridin-2-yl)-phenoxy]-pyrazin-2-yl}-propyl)-N-methyl-acetamide]
The IC50 of the first is higher: 200 to 1000 nM for the first, under 200 nM for the second.

`CC(=O)N(C)CCN(C)c1cncc(Oc2ccc(-c3ccc(CCNC(=O)CCCCCNC(=O)CCCCC4SCC5NC(=O)NC54)cc3)cc2)n1` (centres unmarked) [Compound 271, 6-[5-(2-Oxo-hexahydro-thieno[3,4-d]imidazol-6-yl)-pentanoyl-amino]-hexanoic acid {2-[4′-(6-{[2-(acetyl-methyl-amino)-ethyl]-methyl-amino}-pyrazin-2-yloxy)-biphenyl-4-yl]-ethyl}-amide] and `CC(=O)N(C)CCN(C)c1cncc(Oc2ccc(-c3ccc(CN(C)C(=O)CCCCCNC(=O)CCCCC4SCC5NC(=O)NC54)nc3)cc2)n1` (centres unmarked) [Compound 272, 6-[5-(2-Oxo-hexahydro-thieno[3,4-d]imidazol-6-yl)-pentanoyl-amino]-hexanoic acid {5-[4-(6-{[2-(acetyl-methyl-amino)-ethyl]-methyl-amino}-pyrazin-2-yloxy)-phenyl]-pyridin-2-ylmethyl}-methyl-amide] cannot be ordered by IC50: under 200 nM for the first, under 200 nM for the second.

First: CC(=O)N(C)CCN(C)c1cncc(Oc2ccc(-c3ccc(N=[N+]=[N-])cn3)cc2)n1 [Compound 273, N-[2-({6-[4-(5-Azido-pyridin-2-yl)-phenoxy]-pyrazin-2-yl}-methyl-amino)-ethyl]-N-methyl-acetamide]
Second: CC(=O)N(C)CCCc1cncc(Oc2ccc(-c3ccc([N+](=O)[O-])cn3)cc2F)n1 [Compound 274, N-(3-{6-[2-Fluoro-4-(5-nitro-pyridin-2-yl)-phenoxy]-pyrazin-2-yl}-propyl)-N-methyl-acetamide]
The IC50 of the first is lower: under 200 nM for the first, 1000 to 10000 nM for the second. The first is the more potent here.

First: O=C1OCCN1CCNc1cncc(Oc2ccc(F)cc2)n1 [Compound 277, 3-{2-[6-(4-Fluoro-phenoxy)-pyrazin-2-ylamino]-ethyl}-oxazolidin-2-one]
Second: O=C1NCCN1CCNc1cncc(Oc2ccc(F)cc2)n1 [Compound 278, 1-{2-[6-(4-Fluoro-phenoxy)-pyrazin-2-ylamino]-ethyl}-imidazolidin-2-one]
The IC50 of the first is higher: 1000 to 10000 nM for the first, 200 to 1000 nM for the second.
